Experiments:
[1] = test system: platelets with HIT antibody
Protocol: The second technique employed was flow cytometric platelet analysis. In this functional test, platelets in whole blood are activated by heparin or heparin analog in the presence of heparin antibody in serum from a patient clinically diagnosed with HIT. Using flow cytometry, platelet activation was determined in two manners: by the formation of platelet microparticles and by the increase of platelet surface bound P-selectin.
Specifically, whole blood drawn by careful double-syringe technique was anticoagulated with hirudin (10 μg/ml final concentration). An aliquot of whole blood (50 μL) was immediately fixed in 1 ml 1% paraformaldehyde (gating control). […] Samples were analyzed on an EPICS XL flow cytometer (Beckman-Couter; Hialeah, Fla.) for forward angle (FALS) and side angle light scatter, and for FITC and PE (phycoerythrin) fluorescence. […]
Using the gating control sample, amorphous regions were drawn to include single platelets and platelet microparticles. Platelet microparticles were distinguished from platelets on the basis of their characteristic flow cytometric profile of cell size (FALS) and FITC fluorescence (CD61 platelet marker). […] Data was reported as a percentage of the total number of CD61-positive events analyzed.

[2] = test system: rabbit ventricular myocytes; test: [Ca^++]i during paced aerobic metabolism (PH) with the Na^+ channel opener ATX; assay type: cell-based; conditions: n = 7
Protocol: In these studies, intracellular calcium concentration [Ca^++]i was measured by flow cytometry. Measurement of isolated mouse and rabbit ventricular myocyte [Ca^2+]i and [Na^+]i by flow cytometry has been described (Zhang et al., J. Cardiovasc. Pharmacol. 51: 443-449 (2008); Li et al., J. Mol. Cell. Cardiol. 33: 2145-2155 (2001)). [Ca^++]i was measured with the Ca^++ sensitive fluorescent probe, Fluo 3-AM (Molecular Probes, Eugene, Oreg.), using a FACScan (Becton-Dickinson, MA). The cells were exposed to 4 μmol/L Fluo-3 AM for 30 min at 37° C. The cells were then separated into aliquots. After 40 min of wash, the cells were exposed to paced metabolic ischemia (MI) for 45 min at 37° C. Metabolic ischemia was accomplished by incubating cells in a glucose-free MKRBB solution (pH 7.40) containing 2 mmol/L sodium cyanide (NaCN) to impair mitochondrial and glycolytic generation of ATP. To reproduce the situation in the beating ischemic heart, during the period of metabolic ischemia, myocytes were placed in a 5-well chamber with equal volumes of myocyte suspensions from the same heart dissociation placed in each well. The chamber was water bathed to maintain temperature at 37° C. and bubbled with 5% CO2 in air to keep myocytes in suspension. […] Approximately 2×10^3 myocytes were analyzed to calculate average emission fluorescence intensity in each sample. […] Only those cells with low fluorescence intensity at 670 nm (PI-negative cells or viable cells) were included in the comparative analysis of [Ca^++]i. The sample [Ca^2+]i values were calculated by Mn^2+ quenching (Sugishita et al, 2001) and [Na^+]i values by comparison with a standard curve of varied [Na^+]i versus Na Green fluorescence. […] Results were expressed as means±SEM. […]
To further examine the role of ODSH as a Na^+ inhibitor, additional experiments were performed in which the Na^+ channel opener amenone toxin II (ATX) was added to medium in a final concentration of 20 nmol/L to open the cardiac myocyte membrane Na^+ channel. […] Intracellular calcium concentration [Ca^++]i was monitored as earlier. […]

[3] = test system: platelets with HIT antibody; test: Serotonin release assay (SRA) with HIT-positive serum; conditions: ODSH added with heparin to the HIT antibody
Protocol: Two techniques were employed to measure platelet activation in response to heparin or 2-O desulfated heparin in the presence of HIT-reactive serum.
The first technique was the serotonin release assay (SRA), considered the gold standard laboratory test for HIT, and performed as described by Sheridan (Sheridan D, et al. Blood 67:27-30, 1986). Washed platelets were loaded with ^14C serotonin (^14C-hydroxy-tryptamine-creatine sulfate, Amersham), and then incubated with various concentrations of test heparin or heparin analog in the presence of serum from known HIT-positive patients as a source of antibody. Activation was assessed as ^14C serotonin release from platelets during activation, with ^14C serotonin quantitated using a liquid scintillation counter. […] Activated platelets are defined as percent isotope release of ≧20%.
The initial 3 ml (milliliters) of whole blood in the first syringe was discarded. The anticoagulated blood was centrifuged (80×g (gravity), 15 min, room temperature) to obtain platelet rich plasma (PRP). […] EDTA was added to stop the reaction, and the mixture was centrifuged to pellet the platelets. ^14C-serotonin released into the supernatant was measured on a scintillation counter. Maximal release was measured following platelet lysis with 10% Triton X-100. […]

[4] = test system: blood coagulation (aPTT, ACT); test: Phase I bolus plus 12 hour infusion study: coagulation tests (aPTT, ACT); assay type: in vivo, human; conditions: all dosing regimens; FIG. 20
Protocol: A study was performed in twenty-four (24) healthy adult subjects to assess the effects of a bolus dose and 12 hour infusion of 2-O, 3-O desulfated heparin. The study was a Phase I, randomized, double-blind, dose escalation study with single-day treatment periods. Subjects were males between the ages of 18 and 45, and were normal in body weight. They all had normal coagulation function and hemoglobin values at baseline. […] Eighteen (18) subjects were randomized to receive ODSH and six (6) subjects were randomized to receive placebo. Subjects received either ODSH or placebo as described below in Table 13.
For each subject, ODSH as a 50 mg/ml formulation was diluted with normal saline and administered as a bolus infused over 15 minutes containing the calculated amount of ODSH the subject was to receive, followed by a constant infusion for 12 hours of ODSH diluted in saline. Placebo consisted of 50 mL of normal saline infused over 15 minutes, followed by normal saline infused for 12 hours. Immediately before infusion and after the start of each infusion, blood was drawn at periodic times (over a total 24 hour period) to monitor the effect of infusion on the following laboratory studies: activated partial thromboplastin time (aPTT); prothrombin time (PT); activated clotting time (ACT); and ODSH plasma level.

2-O, 3-O desulfated heparin [ODSH]
platelet microparticle formation versus saline control [1]: no level of platelet microparticle formation above that of the saline control incubations
[Ca^++]i ([2]; PH + ODSH 100 μg/mL + ATX 20 nmol/L, PH + ATX 529.1 ± 29.3): 412.9 ± 26.7^+ nM
[Ca^++]i ([2]; PH + ODSH 100 μg/mL, no ATX, PH alone 406.8 ± 15.9): 366.4 ± 21.1 nM
effect on heparin-induced platelet activation [3]: prevented heparin from causing platelet activation
ACT increases [4]: ACT increases providing adequate therapeutic anticoagulation necessary for the cardiac catheterization laboratory were observed in all dosing regimens
